Data taken from US5770595A, “Oxime substituted therapeutic compounds” (Cell Therapeutics, Inc., priority 1994, dated 1998).

Test system: murine thymocyte
Assay: thymocyte proliferation stimulated by ConA and IL-2
Format: cell-based, murine (female Balb/C mice)
Conditions: IL-2 20 ng/ml; drug two hours prior; FIG. 4
Experimental: A thymocyte costimulator assay is conducted to evaluate the inventive compounds to inhibit activation and proliferation of thymocytes caused by stimulation with Con A and interleukin-1 (IL-1), or […]. Thymuses are obtained from mice (e.g., female Balb/C mice) and the thymuses are removed and dissociated into culture media (e.g., RPMI 1640 without serum supplementation). The dissociated thymus tissue and cell suspension is transferred to centrifuge tubes and allowed to settle, washed with HBSS and resuspended in serum-supplemented culture media (e.g., RPMI 1640 with 10% fetal calf serum). Any contaminating red cells are lysed, and viable cells are resuspended and counted. Thymocytes are plated (e.g., 96-well plates at a density of 2×10^5 cells/well) and a stimulating agent, such as Con A, IL-1 (e.g., IL-1α) or IL-2 is added to the well. The cells are incubated for 4 days at 37° C. On the fourth day, the cells are pulsed with tritiated thymidine and cell proliferation determined. […]
1522 on inhibition of thymocyte proliferation stimulated by ConA and interleukin-2 (IL-2) (20 ng/ml). Compound no. […]
Thymuses, obtained from normal, female Balb/C mice, were dissociated and plated into 96-well plates at a density of 2×10^5 cells/well. […] The amount of tritiated thymidine dye incorporated by the harvested cells was determined in a liquid scintillation counter. […]

CON=C(C)CCCCn1c(=O)c2c(ncn2C)n(C)c1=O [Compound no. 1522]
inhibition of thymocyte proliferation, ConA + IL-2: inhibited thymocyte proliferation at the higher doses tested
